Measurements as given in ChEMBL document CHEMBL1146437, “Asterlingulatosides C and D, cytotoxic triterpenoid saponins from Aster lingulatus” (J Nat Prod, 1997).

What follows are molecules tested on HL-60 (assay: Cytotoxicity against human HL60 cells assessed as inhibition of [3H]thymidine incorporation).
Assay type: functional, cell-based
`CC1(C)CC[C@]2(C(=O)O[C@@H]3OC[C@H](O)[C@H](O)[C@H]3O)[C@H](O)C[C@]3(C)C(=CC[C@@H]4[C@@]5(C)CC[C@H](O[C@@H]6O[C@H](CO)[C@@H](O)[C@H](O)[C@H]6O)C(C)(C)[C@@H]5CC[C@]43C)[C@@H]2C1` [ASTERLINGULATOSIDE A] gave an IC50 of 39 µM. Molecule `C[C@@H]1O[C@@H](O[C@H]2[C@H](OC(=O)[C@]34CCC(C)(C)C[C@H]3C3=CC[C@@H]5[C@@]6(C)CC[C@H](O[C@@H]7O[C@H](CO)[C@@H](O)[C@H](O)[C@H]7O)C(C)(C)[C@@H]6CC[C@@]5(C)[C@]3(C)C[C@H]4O)OC[C@H](O)[C@@H]2O)[C@H](O)[C@H](O)[C@H]1O[C@@H]1OC[C@@H](O)[C@H](O)[C@H]1O` [ASTERLINGULATOSIDE C] has an IC50 of 8.8 µM. `C[C@@H]1O[C@@H](O[C@H]2[C@H](OC(=O)[C@]34CCC(C)(C)C[C@H]3C3=CC[C@@H]5[C@@]6(C)CC[C@H](O[C@@H]7O[C@H](CO)[C@@H](O)[C@H](O)[C@H]7O)C(C)(C)[C@@H]6CC[C@@]5(C)[C@]3(C)C[C@H]4O)OC[C@H](O)[C@@H]2O)[C@H](O)[C@H](O)[C@H]1O` [ASTERLINGULATOSIDE B] was tested, and the IC50 was 70.4 µM. `C[C@@H]1O[C@@H](O[C@H]2[C@H](OC(=O)[C@]34CCC(C)(C)C[C@H]3C3=CC[C@@H]5[C@@]6(C)CC[C@H](O[C@@H]7O[C@H](CO)[C@@H](O)[C@H](O)[C@H]7O)C(C)(C)[C@@H]6CC[C@@]5(C)[C@]3(C)C[C@H]4O)OC[C@H](O)[C@@H]2O)[C@H](O)[C@H](O)[C@H]1O[C@@H]1OC[C@@H](O)[C@H](O[C@@H]2OC[C@@H](O)[C@H](O)[C@H]2O)[C@H]1O` [ASTERLINGULATOSIDE] gave an IC50 of 6.1 µM.
